Results on eight molecules are retold here after US12060349B2, “Glucosylceramide synthase inhibitors” (Genzyme Corporation, priority 2012, dated 2024).

One may read the IC50 as the point on the concentration scale where inhibition reaches its midpoint.

Test [1] has as its system B16 mouse melanoma cells. Description: cell viability in the B16 cell-based assay (Viability, B16 IC50). Conditions: Mus musculus. In a few lines: (§1)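 Cell death was scored within the cell-based GM3 experiment for each line. The viability value is the concentration producing 50% death, and numbers exceeding 10 signify no cytotoxicity.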
The subject of test [2] is C32 human melanoma cells. Description: cell viability in the C32 cell-based assay (Viability, C32 IC50). The settings on record: Homo sapiens, concentration causing 50% cell death, values greater than 10 represent a lack of cell death. In a few lines: as §1
The target of test [3] is T1, glucosylceramide synthase (Homo sapiens, UniProt Q16739).
T1 construct: Microsomes were isolated from A375 human melanoma cells; endogenous in cells; host or cells: A375 human melanoma cells (microsomal fraction, 100,000 g pellet)
T1 sequence (Q16739 1-394): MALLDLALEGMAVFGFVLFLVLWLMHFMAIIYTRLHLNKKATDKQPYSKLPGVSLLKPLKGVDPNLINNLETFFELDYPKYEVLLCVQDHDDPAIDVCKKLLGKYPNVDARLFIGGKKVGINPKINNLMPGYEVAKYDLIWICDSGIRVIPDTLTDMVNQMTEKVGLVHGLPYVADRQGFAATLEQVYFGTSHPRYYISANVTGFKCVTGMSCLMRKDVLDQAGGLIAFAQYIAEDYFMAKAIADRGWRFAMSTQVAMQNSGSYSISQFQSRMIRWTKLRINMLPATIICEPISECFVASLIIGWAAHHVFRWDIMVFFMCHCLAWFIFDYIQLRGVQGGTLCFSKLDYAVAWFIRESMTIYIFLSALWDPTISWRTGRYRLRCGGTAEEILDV
Description: microsomal assay measuring conversion of ceramide to glucosylceramide by HPLC (GCS IC50). The settings on record: concentration causing 50% inhibition of glucosylceramide synthase activity. Format: biochemical. In a few lines:
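IC50 is the compound concentration halving glucosylceramide synthase activity. Activity was measured in microsomes, with HPLC quantifying glucosylceramide formed from ceramide.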

Test [4] concerns GM3 expression on the cell surface, B16 mouse melanoma cells. Description: cell based phenotypic assay, cell surface GM3 by antibody mediated immunofluorescence, B16 (GM3 B16 IC50). Conditions: Mus musculus, 50% inhibition of GM3 expression on the cell surface. In a few lines:
(§2)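 Both lines undergo the phenotypic GM3 assay, and viability is recorded from that same cell-based run.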

Test [5] deals with GM3 expression on the cell surface, C32 human melanoma cells. Description: cell based phenotypic assay, cell surface GM3 by antibody mediated immunofluorescence, C32 (GM3 C32 IC50). Conditions: Homo sapiens, 50% inhibition of GM3 expression on the cell surface. In a few lines: as §2
Where [6] appears, read: B16, read-out: Viability, B16 IC50.
The mark [7] stands for this setting: C32, read-out: Viability, C32 IC50, C32 cells.
Where [8] appears, read: read-out: GM3 B16 IC50, B16 mouse melanoma cells.
Setting [9] is: read-out: GM3 C32 IC50, C32 human melanoma cells.
Setting [10] is: B16, B16 cells, concentration causing 50% cell death, values greater than 10 represent a lack of cell death, read-out: Viability, B16 IC50.
[11] abbreviates: C32, C32 cells, read-out: Viability, C32 IC50.
The mark [12] stands for this setting: B16 mouse melanoma cells, read-out: GM3 B16 IC50.
Where [13] appears, read: C32 human melanoma cells, read-out: GM3 C32 IC50.

Each structure is given as a SMILES string. Where two headings read alike, the source gives them in different places.

On to `CC(C)(C)CCS(=O)(=O)c1ccc(-c2ccc(C(C)(C)NC(=O)OC3CN4CCC3CC4)cc2)cc1` (stereo not shown) [Example 245, Quinuclidin-3-yl (2-(4′-((3,3-dimethylbutyl)sulfonyl)-[1,1′-biphenyl]-4-yl)propan-2-yl)carbamate], for which the IC50 in test [1] (setting [6]) was 6740 nM; in test [2] (setting [7]), 316 nM; in test [3], 1.85 nM; in test [4] (setting [8]), 66.3 nM; in test [5] (setting [9]), 0.716 nM.
For the molecule `CC(C)(C)CCS(=O)(=O)c1ccc(-c2ccc(C(C)(C)NC(=O)NC3(C)CN4CCC3CC4)cc2)cc1` (stereo not shown) [Example 246, 1-(2-(4′-((3,3-Dimethylbutyl)sulfonyl)-[1,1′-biphenyl]-4-yl)propan-2-yl)-3-(3-methylquinuclidin-3-yl)urea], the half-inhibitory concentration (IC50) in test [1] (setting [10]) was no less than 10000 nM; in test [2] (setting [11]), 1000 nM; in test [3] it was 1.7 nM; in test [4] (setting [12]) it was 11.4 nM; in test [5] (setting [13]), 0.624 nM.
Take `CCC1(NC(=O)NC(C)(C)c2ccc(-c3ccc(S(=O)(=O)CCC(C)(C)C)cc3)cc2)CN2CCC1CC2` (stereo not shown) [Example 247, 1-(2-(4′-((3,3-Dimethylbutyl)sulfonyl)-[1,1′-biphenyl]-4-yl)propan-2-yl)-3-(3-ethylquinuclidin-3-yl)urea]: the 50% inhibitory concentration (IC50) was 6640 nM in test [1] (setting [10]); 1000 nM in test [2] (setting [11]); 1.66 nM in test [3]; 4.28 nM in test [4] (setting [12]); 0.396 nM in test [5] (setting [13]).
As for `CC(C)(C)CCS(=O)(=O)c1ccc(-c2ccc(C(C)(C)NC(=O)NC3(C)CCN4CCC3CC4)cc2)cc1` (stereo not shown) [Example 248, 1-(2-(4′-((3,3-Dimethylbutyl)sulfonyl)-[1,1′-biphenyl]-4-yl)propan-2-yl)-3-(4-methyl-1-azabicyclo[3.2.2]nonan-4-yl)urea], the IC50 in test [1] (setting [10]) turned out to be 7730 nM; in test [2] (setting [11]) it was 1000 nM; in test [3], 0.804 nM; in test [4] (setting [12]) it was 6.84 nM; in test [5] (setting [13]), 0.315 nM.
Consider `COCC1(CS(=O)(=O)c2ccc(-c3ccc(C(C)(C)NC(=O)OC4CN5CCC4CC5)cc3)cc2)CC1` (stereo not shown) [Example 249, Quinuclidin-3-yl (2-(4′-(((1-(methoxymethyl)cyclopropyl)methyl)sulfonyl)-[1,1′-biphenyl]-4-yl)propan-2-yl)carbamate], for which the IC50 in test [1] (setting [6]) was no less than 10000 nM; in test [2] (setting [7]) it was 2150 nM; in test [3], 53.5 nM; in test [4] (setting [8]), 247 nM; in test [5] (setting [9]), 5.82 nM.
Take `CCC1(NC(=O)NC(C)(C)c2ccc(-c3ccc(S(=O)(=O)CC4(COC)CC4)cc3)cc2)CN2CCC1CC2` (stereo not shown) [Example 250, 1-(3-Ethylquinuclidin-3-yl)-3-(2-(4′-(((1-(methoxymethyl)cyclopropyl)methyl)sulfonyl)-[1,1′-biphenyl]-4-yl)propan-2-yl)urea]: the IC50 is no less than 10000 nM in test [1] (setting [10]); 1000 nM in test [2] (setting [11]); 20.1 nM in test [3]; 84.5 nM in test [4] (setting [12]); 4.41 nM in test [5] (setting [13]).
For the molecule `CCCC1(NC(=O)NC(C)(C)c2ccc(-c3ccc(S(=O)(=O)CC4(COC)CC4)cc3)cc2)CN2CCC1CC2` (stereo not shown) [Example 251, 1-(2-(4′-(((1-(Methoxymethyl)cyclopropyl)methyl)sulfonyl)-[1,1′-biphenyl]-4-yl)propan-2-yl)-3-(3-propylquinuclidin-3-yl)urea], the 50% inhibitory concentration (IC50) in test [1] (setting [10]) is no less than 10000 nM; in test [2] (setting [11]), 1000 nM; in test [3], 21 nM; in test [4] (setting [12]), 47.5 nM; in test [5] (setting [13]), 5.01 nM.
As to `CNC(=O)c1ccc(-c2ccc(C(C)(C)NC(=O)OC3CN4CCC3CC4)cc2)cc1` (stereo not shown) [Example 252, Quinuclidin-3-yl (2-(4′-(methylcarbamoyl)-[1,1′-biphenyl]-4-yl)propan-2-yl)carbamate], the IC50 in test [1] (setting [6]) is no less than 10000 nM; in test [2] (setting [7]) it was no less than 10000 nM; in test [3] it was 1840 nM; in test [4] (setting [8]), 1500 nM; in test [5] (setting [9]) it was 220 nM.
